Experimental data: publication PMC9313812, “The Pseudo‐Natural Product Rhonin Targets RHOGDI” (Angewandte Chemie (International Ed. in English), 2022)

System: NIH/3T3 cells
Assay: Smoothened trafficking (ciliary localization of SMO)
Format: cell-based
Details: purmorphamine stimulation
Protocol: in fresh medium containing 0.5 % FBS and 5 nM BODIPY-cyclopamine for 4 h. Afterwards, cell nuclei were stained with 1 µg/ml DAPI for 10 min, samples were washed three times with PBS and subsequently mounted on glass slides using Aqua Polymount (Polysciences Inc).
Images were acquired on an Axiovert Observer Z1 microscope (Carl Zeiss, Germany) using a Plan-Apochromat 63x/1.40 Oil DIC M27 objective.
Additionally, SMO binding was confirmed by flow cytometry. HEK293T cells were seeded (3×10^5 per well) in 6-well plate and transfected with BFP-SMO-expressing plasmid using FuGENE HD transfection reagent according to the manufacturer’s instructions. After 48 h of incubation the medium was replaced by DMEM containing 0.5% FBS, 5 nM BODIPY-cyclopamine and various concentrations of the test compounds or DMSO as a control. […]
projections, after previous background subtraction. For quantification, cilia were identified and […]
Smoothened antibody were measured within these areas. […]
significances were assessed using an unpaired t-test (confidence interval of 95%) with the […]
replicates were performed and for each replicate at least 100 cilia per condition were analyzed.
Reverse transcription- quantitative PCR (RT-qPCR) […]
DNase I digestion step. The concentration of purified RNA was determined by means of the […]

| SMILES | Localization of SMO to cilia (in words) |
| --- | --- |
| COC(=O)C1(C(CC(=O)c2cccnc2)c2ccccc2)N=C(c2ccc(Br)cc2)C2C(=O)N(C)C(=O)C21 (centres unmarked) [7l] | SMO was localized to the cilia |
| COC(=O)C1(C(CC(=O)c2ccccc2)c2ccccc2)N=C(c2ccc(Br)cc2)C2C(=O)N(C)C(=O)C21 (centres unmarked) [7a] | did not affect the localization of SMO to cilia |
